Source: patent US7087223B2, “Preventives and/or remedies for hyperphosphatemia” (Hisamitsu Pharmaceutical Co., Inc., priority 2000, dated 2006)

Legend:
rats with ⅚ nephrectomy = test: Effects on blood phosphorus concentration and renal function in rats with 5/6 nephrectomy; type: in vivo, rat; conditions: 0.3 g in 15 g of feed, 12 weeks after nephrectomy, vs control
Description: Effects on Blood Phosphorus Concentration and Renal Function in Rats With ⅚ Nephrectomy
Using male SD rats (aged 9 weeks), the experiments on the effects for the lowering action of urinary phosphorus amount and the renal function in the weakly basic anion exchange resin (Ionac A-365; Sybron Chemicals. Co.) or calcium carbonate were carried out as follows.
Namely, ⅔ of the left kidney was removed, after 1 week the right kidney being totally removed to make rats with ⅚ nephrectomy. After 1 week, a mixed feed administration of calcium carbonate or Ionac A-365 started. As a powder feed for rat MF manufactured by Oriental Yeast was used, and the administration dose was made 0.3 g content in 15 g of the feed. 12 weeks after the preparation of rats with ⅚ nephrectomy, blood was collected from the caudal vein, and the blood phosphorus concentration was measured by an inorganic phosphorus measurement reagent (P Test Wako). Also, urine was collected for 24 hours before the nephrectomy and 12 weeks after the nephrectomy, and the urinary protein concentration being measured by a protein measurement reagent (Protein Assay Kit, Bio-lad). As for rats in each group, 9 rats in each were subjected to the experiments.

male SD rats = test: Effects on amount of urinary phosphorus in normal rats; type: in vivo; conditions: 0.5 g in feed (20 g/rat/day) containing 0.58% phosphorus, 5 days, vs control, FIG. 2
Description: Effects on Amount of Blood and Urinary Phosphorus in Normal Rats
Using male SD rats (aged 8 weeks), the experiments on suppressive effects for the increase of urinary phosphorus amount in the weakly basic anion exchange resin (Ionac A-365; Sybron Chemicals Co.) or calcium carbonate were carried out as follows.
Namely, after the rats were given with feed (20 g/rat/day) containing 0.3% phosphorus for 7 days, feed (20 g/rat/day) containing 0.58% phosphorus was mixed with 0.5 g of Ionac A-365 or calcium carbonate and the mix feed was further administered to the rats for 5 days. Further, urine was collected for 24 hours before the drug administration and 5 days after the drug administration, and the amount of urinary phosphorus was calculated based on the urinary phosphorus concentration and the amount of urine. The urinary phosphorus concentration was measured by an inorganic phosphorus measurement reagent (P Test Wako). The increased amount of urinary phosphorus excretion was calculated based on the obtained difference of urinary phosphorus amount between before drug administration and 5 days after the drug administration, and compared with that of the non-administration group (control). As for rats in each group, 6 rats in each were subjected to the experiments.

SMILES: O=C([O-])[O-].[Ca+2] [calcium carbonate]
- blood phosphorus concentration (rats with ⅚ nephrectomy; FIG. 3): no significant difference in blood phosphorus concentration compared with control
- increase of urinary protein excretion amount (rats with ⅚ nephrectomy; FIG. 4): significantly suppressed compared with control
- increase of urinary phosphorus excretion (male SD rats): significantly suppressed compared with that of control
